# Data taken from patent US20230021647A1, “METHOD OF TREATING A PATIENT INFECTED WITH A CORONAVIRUS AND HAVING A BASELINE LEVEL OF CRP BELOW 150 MG/L” (Theravance Biopharma R&D IP, LLC, priority 2021, published 2023).
# Marks after values point to notes of the source that are not given here.
# Columns and labels:
# [1] = Phase 1 SAD/MAD study of inhaled compound 1 in healthy subjects; type: in vivo, human
# Experimental: This was a phase 1, 2-part, double-blind, randomized, placebo controlled, sponsor-open, SAD (Part A) and MAD (Part B). Subjects participated in only 1 cohort in only 1 study part.
# Part A (SAD) consisted of three (3) cohorts of 8 healthy subjects (6 active and 2 placebo). In each cohort, subjects received a single inhaled dose of compound 1 or placebo. […] Cardiodynamic monitoring via Holter monitors was conducted pre-dose and for at least 24 hours following dosing on Day 1 in each cohort, with rest periods for cardiodynamic electrocardiogram (ECG) extractions time matched to the PK sampling time points.
# Part B (MAD) consisted of three (3) cohorts of 10 healthy subjects (8 active and 2 placebo). In each cohort, subjects received inhaled doses once daily (QD) for 7 days. […] Blood samples for PK assessment were also collected pre-dose on the morning of Days 3 through 6. Cardiodynamic monitoring via Holter monitors may be conducted pre-dose on Day 1 and pre-dose and for at least 24 hours following dosing on the morning of Day 7 in each cohort with rest periods for cardiodynamic ECG extractions time matched to the PK sampling time points.
# In Parts A and B, safety data (i.e., physical examinations, vital signs, 12-lead safety ECGs, spirometry, clinical laboratory tests, and adverse events [AEs]) were assessed throughout the study; and blood and urine samples were collected for safety assessments. All subjects who received at least one dose of study drug (including subjects who terminated the study early) returned to the CRU 7 (±2) days after the last study drug administration for follow-up procedures, and to determine if any AEs have occurred since the last study visit.
# In Part B, subjects received inhaled doses QD for 7 days using a nebulizer device.
# Morning doses on Days 1 and 7 were administered under fasting conditions due to cardiodynamic monitoring. On all other times, doses were administered at least 30 minutes after completion of a meal or snack. Hour 0 was defined as the beginning of inhalation in each morning dose administration.
# [2] = system: acute lung injury associated with COVID-19; assay: Phase 2 study Part 1, multiple ascending dose in hospitalized COVID-19 patients; type: in vivo, human; conditions: for subjects discharged from the hospital: by Day 21 (placebo 50%); for # Subjects Alive: Part 1, COVID-19 patients
# [3] = single and multiple inhaled doses
# [4] = Part 1, 1 mg QD inhaled, Day 28
# [5] = Part 1, 3 mg QD inhaled, Day 28
# [6] = Part 1, 10 mg QD inhaled, Day 28
smiles,measurement,setting,value
"CCc1cc(O)ccc1-c1ccc2c(-c3nc4c([nH]3)CN(C(C)C)[C@H](C(=O)N3CC(N(C)C)C3)C4)n[nH]c2c1 [Compound 1, (S)-(3-(dimethylamino)azetidin-1-yl)(2-(6-(2-ethyl-4-hydroxyphenyl)-1H-indazol-3-yl)-5-isopropyl-4,5,6,7-tetrahydro-3H-imidazo[4,5-c]pyridin-6-yl)methanone]",AUC0-24,"[1]; 1 mg QD inhaled, Day 1",18.42 ng·h/mL
same,Cmax,"[1]; 1 mg QD inhaled, Day 7",5.699 ng/mL
same,Tmax,[1]; [3],approximately 1 hour
same,terminal elimination half-life,[1]; [3],approximately 24 hours
same,t1/2,"[1]; single inhaled dose 3 mg, mean (SD)",24.73 (2.802) hr
same,Still in Hospital at Day 28,"[2]; Part 1, 1 mg",0 subjects (%)
same,Died (All-Cause Mortality),"[2]; Part 1, 1 mg QD inhaled",1 (16.7%) subjects (%)
same,# Subjects Respiratory Failure-Free,[2]; [4],5 (83.3%) subjects (%)
same,Proportion of Subjects Alive and Respiratory Failure-free,[2]; [4],5 (83.3%) subjects (%)
same,deaths observed,"[2]; Part 1, 1 mg group",one
same,Hospital Discharge,"[2]; Part 1, 1 mg, Day 7",0 subjects (%)
same,Hospital Discharge,"[2]; Part 1, 1 mg, Day 14",2 (33.3%) subjects (%)
same,Hospital Discharge,"[2]; Part 1, 1 mg, Day 21",3 (50.0%) subjects (%)
same,"Clinical Status 1-Not hospitalized, no limitations on activities","[2]; Part 1, 1 mg, Day 28",5 (83.3%) subjects (%)
same,"Clinical Status 2-Not hospitalized, but with limitations on activities and/or requiring home oxygen","[2]; Part 1, 1 mg, Day 28",0 subjects (%)
same,"Clinical Status 3-Hospitalized, not requiring supplemental oxygen, and no longer requiring ongoing medical care","[2]; Part 1, 1 mg, Day 28",0 subjects (%)
same,"Clinical Status 4-Hospitalized, not requiring supplemental oxygen, but requiring ongoing medical care","[2]; Part 1, 1 mg, Day 28",0 subjects (%)
same,"Clinical Status 5-Hospitalized, requiring supplemental oxygen","[2]; Part 1, 1 mg, Day 28",0 subjects (%)
same,"Clinical Status 6-Hospitalized, on non-invasive ventilation or high-flow oxygen devices","[2]; Part 1, 1 mg, Day 28",0 subjects (%)
same,"Clinical Status 7-Hospitalized, on invasive mechanical ventilation or extracorporeal membrane oxygenation","[2]; Part 1, 1 mg, Day 28",0 subjects (%)
same,Clinical Status 8-Death,"[2]; Part 1, 1 mg, Day 28",1 (16.7%) subjects (%)
same,Hospital Discharge,"[2]; Part 1, 1 mg, Day 28",5 (83.3%) subjects (%)
same,Still in Hospital at Day 28,"[2]; Part 1, 3 mg",0 subjects (%)
same,Died (All-Cause Mortality),"[2]; Part 1, 3 mg QD inhaled",0 subjects (%)
same,# Subjects Respiratory Failure-Free,[2]; [5],6 (85.7%)* subjects (%)
same,Proportion of Subjects Alive and Respiratory Failure-free,[2]; [5],6 (85.7%)* subjects (%)
same,Hospital Discharge,"[2]; Part 1, 3 mg, Day 7",1 (14.3%) subjects (%)
same,Hospital Discharge,"[2]; Part 1, 3 mg, Day 14",2 (28.6%) subjects (%)
same,Hospital Discharge,"[2]; Part 1, 3 mg, Day 21",6 (85.7%) subjects (%)
same,"Clinical Status 1-Not hospitalized, no limitations on activities","[2]; Part 1, 3 mg, Day 28",5 (83.3%) subjects (%)
same,"Clinical Status 2-Not hospitalized, but with limitations on activities and/or requiring home oxygen","[2]; Part 1, 3 mg, Day 28",0 subjects (%)
same,"Clinical Status 3-Hospitalized, not requiring supplemental oxygen, and no longer requiring ongoing medical care","[2]; Part 1, 3 mg, Day 28",0 subjects (%)
same,"Clinical Status 4-Hospitalized, not requiring supplemental oxygen, but requiring ongoing medical care","[2]; Part 1, 3 mg, Day 28",1 (16.7%) subjects (%)
same,"Clinical Status 5-Hospitalized, requiring supplemental oxygen","[2]; Part 1, 3 mg, Day 28",0 subjects (%)
same,"Clinical Status 6-Hospitalized, on non-invasive ventilation or high-flow oxygen devices","[2]; Part 1, 3 mg, Day 28",0 subjects (%)
same,"Clinical Status 7-Hospitalized, on invasive mechanical ventilation or extracorporeal membrane oxygenation","[2]; Part 1, 3 mg, Day 28",0 subjects (%)
same,Clinical Status 8-Death,"[2]; Part 1, 3 mg, Day 28",0 subjects (%)
same,Hospital Discharge,"[2]; Part 1, 3 mg, Day 28",7 (100%) subjects (%)
same,subjects discharged from the hospital,"[2]; Part 1, 3 mg",86%
same,Still in Hospital at Day 28,"[2]; Part 1, 10 mg",0 subjects (%)
same,Died (All-Cause Mortality),"[2]; Part 1, 10 mg QD inhaled",0 subjects (%)
same,# Subjects Respiratory Failure-Free,[2]; [6],6 (100.0%) subjects (%)
same,Proportion of Subjects Alive and Respiratory Failure-free,[2]; [6],6 (100.0%) subjects (%)
same,Hospital Discharge,"[2]; Part 1, 10 mg, Day 7",0 subjects (%)
same,Hospital Discharge,"[2]; Part 1, 10 mg, Day 14",2 (33.3%) subjects (%)
same,Hospital Discharge,"[2]; Part 1, 10 mg, Day 21",6 (100%) subjects (%)
same,"Clinical Status 1-Not hospitalized, no limitations on activities","[2]; Part 1, 10 mg, Day 28",5 (83.3%) subjects (%)
same,"Clinical Status 2-Not hospitalized, but with limitations on activities and/or requiring home oxygen","[2]; Part 1, 10 mg, Day 28",1 (16.7%) subjects (%)
same,"Clinical Status 3-Hospitalized, not requiring supplemental oxygen, and no longer requiring ongoing medical care","[2]; Part 1, 10 mg, Day 28",0 subjects (%)
same,"Clinical Status 4-Hospitalized, not requiring supplemental oxygen, but requiring ongoing medical care","[2]; Part 1, 10 mg, Day 28",0 subjects (%)
same,"Clinical Status 5-Hospitalized, requiring supplemental oxygen","[2]; Part 1, 10 mg, Day 28",0 subjects (%)
same,"Clinical Status 6-Hospitalized, on non-invasive ventilation or high-flow oxygen devices","[2]; Part 1, 10 mg, Day 28",0 subjects (%)
same,"Clinical Status 7-Hospitalized, on invasive mechanical ventilation or extracorporeal membrane oxygenation","[2]; Part 1, 10 mg, Day 28",0 subjects (%)
same,Clinical Status 8-Death,"[2]; Part 1, 10 mg, Day 28",0 subjects (%)
same,Hospital Discharge,"[2]; Part 1, 10 mg, Day 28",6 (100%) subjects (%)
same,subjects discharged from the hospital,"[2]; Part 1, 10 mg",100%
same,# Subjects Alive,"[2]; 1 mg QD inhaled, Day 28",5 (83.3%) subjects (%)
same,# Subjects Alive,"[2]; 3 mg QD inhaled, Day 28",7 (100.0%)* subjects (%)
same,# Subjects Alive,"[2]; 10 mg QD inhaled, Day 28",6 (100.0%) subjects (%)
same,"trend vs placebo in oxygenation, clinical status, mortality, respiratory-failure free, time to discharge, Borg Dyspnea Score","[2]; Part 1, all compound 1 groups",positive trend
same,"trend in reduction of inflammation markers (hsCRP, IFN-g, IL-6, IP-10) and RAGE","[2]; Part 1, mostly 3 mg and 10 mg doses",positive trend
